molecular target: T1, CCR1 (Homo sapiens, UniProt P32246); assay: Calcium flux in CCR1 transfected cells, Method B (Calcium 4 dye, HAMAMATSU FDSS6000), MIP-1alpha at EC80; assay type: cell-based; details: cells stably expressing recombinant CCR1 and G-alpha-16, 30 minutes at 37 C then 30 minutes at room temperature
T1 construct: host or cells: Non-adherent cells
T1 sequence (P32246 1-355): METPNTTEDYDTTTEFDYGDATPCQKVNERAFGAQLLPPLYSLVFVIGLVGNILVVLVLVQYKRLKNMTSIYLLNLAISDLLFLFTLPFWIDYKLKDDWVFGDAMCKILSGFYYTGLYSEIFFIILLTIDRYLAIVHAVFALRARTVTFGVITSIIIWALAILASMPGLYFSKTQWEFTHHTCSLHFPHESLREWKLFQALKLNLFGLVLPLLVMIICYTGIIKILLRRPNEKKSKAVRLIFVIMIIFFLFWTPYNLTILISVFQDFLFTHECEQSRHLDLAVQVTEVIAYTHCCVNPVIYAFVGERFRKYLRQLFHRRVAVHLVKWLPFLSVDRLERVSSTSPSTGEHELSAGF
Description: Compounds are assessed for the ability to block the interaction of CCR1 and MIP-1α in a functional cellular assay measuring calcium flux in CCR1 transfected cells.
Method B: Non-adherent cells purchased from Chemicon Corporation (HTS005C), stably expressing recombinant CCR1 and G-alpha-16 are grown in RPMI 1640 medium (Mediatech 10-080-CM) supplemented with 10% FBS, 0.4 mg/mL Geneticin and penicillin/streptomycin. On the day of the assay, the cells are loaded with Calcium 4 dye (Molecular Devices R7448) with Probenecid (Invitrogen P346400) at 8E5 cells/mL for 1 hour at room temperature. After 1 hour, they are seeded in a 384-well tissue culture-treated plate at a density of 20,000 cells/well. Appropriately diluted test compound is added to the well to achieve a top concentration of 3,000 nM (diluted 4-fold with 10 doses total). The final concentration of DMSO is 1%. The buffer is HBSS (Invitrogen 14025) with 20 mM HEPES at pH 7.4. The cells incubate 30 minutes at 37 C and then 30 minutes at room temperature. The plates are transferred to the HAMAMATSU FDSS6000 where MIP-1alpha in 1% BSA is added at the EC80 final concentration. All plates must be read within 4 hours of the start of dye-loading. Wells+/−MIP-1alpha containing diluted DMSO instead of compound serve as the controls. Data are analyzed using Activity Base software.

Row | SMILES | IC50 [nM]
1 | CS(=O)(=O)c1cc(CNC(=O)c2nncc3c2cnn3-c2ccc(F)cc2)ccn1 [1-(4-Fluorophenyl)-1H-pyrazolo[3,4-d]pyridazine-4-carboxylic acid (2-methanesulfonyl-pyridin-4-ylmethyl)-amide] | 91
2 | C[C@H](NC(=O)c1nncc2c1cnn2-c1ccc(F)cc1)c1ccnc(S(C)(=O)=O)c1 [1-(4-Fluorophenyl)-1H-pyrazolo[3,4-d]pyridazine-4-carboxylic acid [(S)-1-(2-methanesulfonyl-pyridin-4-yl)-ethyl]-amide] | 57
3 | CC[C@H](NC(=O)c1nncc2c1cnn2-c1ccc(F)cc1)c1ccc(S(C)(=O)=O)nc1 [1-(4-Fluorophenyl)-1H-pyrazolo[3,4-d]pyridazine-4-carboxylic acid [(S)-1-(6-methanesulfonyl-pyridin-3-yl)-propyl]-amide] | 44
4 | CS(=O)(=O)c1cccc(CNC(=O)c2cncc3c2ccn3-c2ccc(F)cc2)c1 [1-(4-Fluorophenyl)-1H-pyrrolo[2,3-c]pyridine-4-carboxylic acid 3-methanesulfonyl-benzylamide] | 565
5 | CS(=O)(=O)c1cc(CNC(=O)c2cncc3c2ccn3-c2ccc(F)cc2)ccn1 [1-(4-Fluorophenyl)-1H-pyrrolo[2,3-c]pyridine-4-carboxylic acid (2-methanesulfonyl-pyridin-4-ylmethyl)-amide] | 455
6 | C[C@H](NC(=O)c1cncc2c1ccn2-c1ccc(F)cc1)c1ccnc(S(C)(=O)=O)c1 [1-(4-Fluorophenyl)-1H-pyrrolo[2,3-c]pyridine-4-carboxylic acid [(S)-1-(2-methanesulfonyl-pyridin-4-yl)-ethyl]-amide] | 45
7 | CNS(=O)(=O)c1ccc(CNC(=O)c2cc(O)cc3c2ccn3-c2ccc(F)cc2)cc1 [1-(4-Fluorophenyl)-6-hydroxy-1H-indole-4-carboxylic acid 4-methylsulfamoyl-benzylamide] | 1400
8 | CC[C@H](NC(=O)c1cc(S(C)(=O)=O)cc2c1ccn2-c1ccc(F)cc1)c1ccc(S(C)(=O)=O)nc1 [1-(4-Fluorophenyl)-6-methanesulfonyl-1H-indole-4-carboxylic acid [(S)-1-(6-methanesulfonyl-pyridin-3-yl)-propyl]-amide] | 260
9 | CC[C@H](NC(=O)c1cccc2c(-c3ccc(F)cc3)ncn12)c1ccc(Br)nc1 [1-(4-Fluorophenyl)-imidazo[1,5-a]pyridine-5-carboxylic acid [(S)-1-(6-bromopyridin-3-yl)-propyl]-amide] | 96

These reach a lower IC50. Values come first.

Row | IC50 [nM] | SMILES
10 | 3 | CC[C@H](NC(=O)c1nncc2c1cnn2-c1ccc(F)cc1)c1ccnc(S(C)(=O)=O)c1 [1-(4-Fluorophenyl)-1H-pyrazolo[3,4-d]pyridazine-4-carboxylic acid [(S)-1-(2-methanesulfonyl-pyridin-4-yl)-propyl]-amide]
11 | 2 | CC[C@H](NC(=O)c1cncc2c1ccn2-c1ccc(F)cc1)c1ccnc(S(C)(=O)=O)c1 [1-(4-Fluorophenyl)-1H-pyrrolo[2,3-c]pyridine-4-carboxylic acid [(S)-1-(2-methanesulfonyl-pyridin-4-yl)-propyl]-amide]
12 | 23 | CC[C@H](NC(=O)c1cncc2c1ccn2-c1ccc(F)cc1)c1cnc(S(C)(=O)=O)s1 [1-(4-Fluorophenyl)-1H-pyrrolo[2,3-c]pyridine-4-carboxylic acid [(S)-1-(2-methanesulfonyl-thiazol-5-yl)-propyl]-amide]
13 | 2 | CC[C@H](NC(=O)c1cncc2c1ccn2-c1ccc(F)cc1)c1cncc(S(C)(=O)=O)c1 [1-(4-Fluorophenyl)-1H-pyrrolo[2,3-c]pyridine-4-carboxylic acid [(S)-1-(5-methanesulfonyl-pyridin-3-yl)-propyl]-amide]
14 | 21 | CC[C@H](NC(=O)c1cncc2c1ccn2-c1ccc(F)cc1)c1ccc(S(C)(=O)=O)nc1 [1-(4-Fluorophenyl)-1H-pyrrolo[2,3-c]pyridine-4-carboxylic acid [(S)-1-(6-methanesulfonyl-pyridin-3-yl)-propyl]-amide]

— patent US8927550B2, “Heterocyclic compounds as CCR1 receptor antagonists” (Boehringer Ingelheim International GmbH, priority 2009, dated 2015)
